From patent publication US20220095648A1, “USE OF A THRAUSTOCHYTRID BIOMASS FOR MAINTAINING GUT BARRIER FUNCTION” (priority 2019, published 2022)

Legend:
Caco-2 cells [1] = assay: TER of Caco-2 cells exposed to DON; type: cell-based
Description: Caco-2 cells were used as a model of intestinal epithelial cells. Cells were routinely grown in culture media (DMEM) supplemented with 10% fetal calf serum and 1% antibiotics (streptomycin penicillin solution). Cells were grown in 75 cm^2 ventilated flasks maintained at 37° C. in a 5% CO2 incubator. Cells were routinely passaged using trypsin-EDTA solution. For the assay, cells were seeded onto 12-well inserts (Thincert, Greiner, pore size 0.4 μm) at an initial density of 200,000 cells/cm^2 and let to differentiate for 10-14 days post-seeding before being used, with medium changes every two days. Cell differentiation was confirmed by reading the TER, using a Volt/Ohm meter (Millipore), at the beginning of the experiment, when the TER value reached 600 Ohm/cm^2. […]
After differentiation, Caco-2 cells were put in contact, during 48 or 72 h, with or without DON at different concentrations (0, 6.25, 12.5, 25, 50 or 100 μM), and with activated charcoal at 1% (w/v) as positive control, or with or without one of the microalgae preparation type at different concentrations (1, 5, or 20% v:v, final dilution), each added on the apical side. At the end of the incubation time, the TER was measured using a Volt/Ohm meter (Millipore), and results were expressed in percentages of the control put in contact with the same concentration of DON but not with the tested product (microalgae or charcoal). […]

Caco-2 cells [2] = assay: L-Threonine uptake by Caco-2 cells exposed to DON; type: cell-based; details: DON 10 μM alone; for % of inhibition by DON, Active transport: total minus passive
From the text: In order to test the ability of microalgae to reduce/prevent the effect of DON on nutrient absorption through epithelial cells, Caco-2 cells were exposed to a metabolically active dose of DON, in the absence or presence of Aurantiochytrium mangrovei FCC1325 microalgae (lyophilized microalgae “ML”, or digested lyophilized microalgae “MLD”), at a dose of 1% or 5%. Two main types of nutrients were considered (i.e. glucose and amino acids—more particularly Methionine, Lysine and Threonine), and the following measurements were carried out: • For glucose (D-Glc): passive, active (regulated by the sodium-dependent SGLT-1 transporter) and total (active+passive) absorption • For amino acids (L-Methionine, L-Lysine and L-Threonine): passive, active (regulated by sodium-dependent transport) and total (active+passive) absorption
Briefly, Caco-2 cells were cultured and seeded onto 12-well inserts, as described in Example 1, and then let to differentiate for 16-21 days post-seeding before being used, with medium changes every two days. When differentiated, Caco-2 cells were incubated or not with DON at 10 μM (apically added), in the absence or presence of 1 or 5% (v:v final dilution, apically added) of microalgae preparation (ML or MLD). Both ML and MLD powders were resuspended initially at 0.8 mg/ml in buffer (fresh culture medium of the microalgae). Caco-2 cells were incubated for 12, 24 or 48 hours before nutrient uptake was measured.
At the end of the incubation period, inserts were washed twice with PBS++. Inserts were then washed twice with uptake buffer (Ringer Hepes buffer) with or without sodium. Uptake buffer composition was: • Ringer Hepes buffer with sodium (called “+Na+”): 137 mmol/L NaCl, 5.36 mmol/L KCl, 0.4 mmol/L Na2HPO4, 0.8 mmol/L MgCl2, 1.8 mmol/L CaCl2, 20 mmol/L N-2-hydroxyethylpiperazine-N-2-ethanesulfonic acid (HEPES), pH being adjusted to pH 7.4 with NaOH; or • Ringer Hepes buffer without sodium (called “—Na+”): 137 mmol/L Choline chloride (instead of sodium chloride), 5.36 mmol/L KCl, 0.4 mmol/L K2HPO4 (instead of Na2HPO4), 0.8 mmol/L MgCl2, 1.8 mmol/L CaCl2, 20 mmol/L N-2-hydroxyethylpiperazine-N-2-ethanesulfonic acid (HEPES), pH being adjusted to pH 7.4 with KOH.
After an equilibration period of 15 min at 37° C., uptake assay was initiated by the addition of D-Glc, L-Lysine, L-Methionine or L-Threonine diluted in the appropriate Ringer Hepes buffer (400 μl) and added apically onto Caco-2 inserts (final concentration of 100 μM of D-Glc and 400 μM for amino-acids), the basolateral compartment being filled with 400 μl of buffer. Inserts were kept incubated at 37° C. during the uptake assay. After 15 minutes incubation, 30 μl of media were collected from apical or basolateral compartments and stored at −20° C. until nutrient quantification. Residual concentrations of D-Glc or L-amino acid present in the apical compartments were measured using enzyme-based quantification assay kits (Glucose Colorimetric/Fluorometric Assay Kit, Sigma-Aldrich).
Uptakes were expressed as: • Total uptake: uptake measured (either measured residual apical concentration or calculated absorbed (intracellular+basolateral) concentration) in Ringer Hepes buffer with Na+corresponding to the activity of sodium-dependent and sodium-independent transporters; • Passive uptake: uptake measured in Ringer Hepes buffer without Na+corresponding to only passive/sodium-independent transporters; • Active uptake: uptake calculated by subtracting passive uptake to total uptake.

Question: CC1=C[C@H]2O[C@@H]3[C@H](O)C[C@](C)([C@@]2(CO)[C@H](O)C1=O)[C@]31CO1 [DON, Deoxynivalenol] was tested. Which “effect of DON only on the TER” value (Caco-2 cells [1]; DON 6.25-100 μM, more pronounced as concentration increased) did it give?
Answer: induced a reduction of the TER

Question: And the IC50 (Caco-2 cells [1]; IC50 of DON on TER, control without tested product, 48 h)?
Answer: 11 µM

Question: What about the “% of inhibition by DON, Passive uptake (−Na)” value (“% of inhibition by DON … (−Na)” for short) (Caco-2 cells [2]; 12 h) of the same compound?
Answer: −9.5%

Question: And the “% of inhibition by DON, Total uptake (+Na)” value (shortened to “% of inhibition … (+Na)”) (Caco-2 cells [2]; 12 h)?
Answer: −6.3%

Question: What about the “% of inhibition by DON, Active transport” value (Caco-2 cells [2]; 12 h) of the same compound?
Answer: 56.5%

Question: What about the “% of inhibition by DON … (−Na)” value (Caco-2 cells [2]; 24 h) of the same compound?
Answer: −9.5%

Question: And the “% of inhibition … (+Na)” value (Caco-2 cells [2]; 24 h)?
Answer: −6.3%

Question: What about the “% of inhibition by DON, Active transport” value (Caco-2 cells [2]; 24 h) of the same compound?
Answer: 56.5%

Question: And the “% of inhibition by DON … (−Na)” value (Caco-2 cells [2]; 48 h)?
Answer: −16.9%

Question: What about the “% of inhibition … (+Na)” value (Caco-2 cells [2]; 48 h) of the same compound?
Answer: −14.5%

Question: And the “% of inhibition by DON, Active transport” value (Caco-2 cells [2]; 48 h)?
Answer: 76.4%
